Data: US8268990B2, “Compounds” (AstraZeneca AB, priority 2007, dated 2012)

biological target: T1, Recombinant human TLR7 (Homo sapiens, UniProt Q9NYK1); assay: Human TLR7 Assay (SEAP reporter); type: cell-based; conditions: HEK293 cell line stably expressing human TLR7 and pNiFty2-SEAP reporter; SEAP induction after overnight incubation at 37° C., 0.1% (v/v) DMSO;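 note: SEAP driven by an NFkB-responsive composite promoter, pEC50 read at half of each compound's own maximal SEAP induction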
T1 construct: expressed in transfected cells; host or cells: HEK293 cell line stably expressing the pNiFty2-SEAP reporter plasmid; TLR7 in vector pUNO, blasticidin selection
T1 sequence (Q9NYK1 27-1049): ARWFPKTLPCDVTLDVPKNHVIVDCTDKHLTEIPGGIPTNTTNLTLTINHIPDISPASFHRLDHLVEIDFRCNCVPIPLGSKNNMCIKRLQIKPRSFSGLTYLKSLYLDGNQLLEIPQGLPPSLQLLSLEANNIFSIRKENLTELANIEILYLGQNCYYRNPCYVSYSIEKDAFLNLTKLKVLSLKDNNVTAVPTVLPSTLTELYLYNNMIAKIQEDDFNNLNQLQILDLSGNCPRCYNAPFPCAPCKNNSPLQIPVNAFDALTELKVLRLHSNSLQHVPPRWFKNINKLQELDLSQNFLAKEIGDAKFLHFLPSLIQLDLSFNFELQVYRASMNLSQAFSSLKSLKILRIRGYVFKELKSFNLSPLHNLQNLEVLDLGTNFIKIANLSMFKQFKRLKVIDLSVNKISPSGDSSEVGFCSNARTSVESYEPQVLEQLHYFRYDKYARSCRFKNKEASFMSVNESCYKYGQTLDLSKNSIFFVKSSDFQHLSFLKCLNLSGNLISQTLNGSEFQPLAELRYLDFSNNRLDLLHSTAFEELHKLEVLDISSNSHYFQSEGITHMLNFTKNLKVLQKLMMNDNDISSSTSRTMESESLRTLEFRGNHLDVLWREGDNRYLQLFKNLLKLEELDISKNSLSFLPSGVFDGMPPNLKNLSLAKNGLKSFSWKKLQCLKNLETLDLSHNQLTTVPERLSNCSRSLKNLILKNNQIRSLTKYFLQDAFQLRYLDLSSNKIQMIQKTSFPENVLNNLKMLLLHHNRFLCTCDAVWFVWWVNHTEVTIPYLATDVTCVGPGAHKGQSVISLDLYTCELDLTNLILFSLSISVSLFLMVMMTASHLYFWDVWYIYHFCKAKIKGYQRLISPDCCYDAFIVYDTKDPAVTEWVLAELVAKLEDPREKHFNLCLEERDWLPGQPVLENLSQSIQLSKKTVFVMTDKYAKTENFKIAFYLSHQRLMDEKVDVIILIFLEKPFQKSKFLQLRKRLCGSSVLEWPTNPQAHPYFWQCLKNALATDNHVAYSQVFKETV
From the text: Recombinant human TLR7 was stably expressed in a HEK293 cell line already stably expressing the pNiFty2-SEAP reporter plasmid; integration of the reporter gene was maintained by selection with the antibiotic zeocin. The most common variant sequence of human TLR7 (represented by the EMBL sequence AF240467) was cloned into the mammalian cell expression vector pUNO and transfected into this reporter cell-line. Transfectants with stable expression were selected using the antibiotic blasticidin. In this reporter cell-line, expression of secreted alkaline phosphatase (SEAP) is controlled by an NFkB/ELAM-1 composite promoter comprising five NFkB sites combined with the proximal ELAM-1 promoter. TLR signaling leads to the translocation of NFkB and activation of the promoter results in expression of the SEAP gene. TLR7-specific activation was assessed by determining the level of SEAP produced following overnight incubation of the cells at 37° C. with the standard compound in the presence of 0.1% (v/v) dimethylsulfoxide (DMSO). Concentration dependent induction of SEAP production by compounds was expressed as the concentration of compound which produced half of the maximal level of SEAP induction for that compound (pEC50).

Structure (SMILES)	EC50 [nM]
CCCCCNc1nc(N)nc(C)c1Cc1ccc(CC(=O)OCCN2CCOCC2)cc1 [Example 35, 2-Morpholinoethyl 2-(4-((2-amino-4-methyl-6-(pentylamino)pyrimidin-5-yl)methyl)phenyl)acetate]	251
CCCCCNc1nc(N)nc(C)c1CCCN(Cc1cccc(CC(=O)OC)c1)C(=O)CN1CCN(CCCN(C)C)CC1 [Example 9, Methyl 2-(3-((N-(3-(2-amino-4-methyl-6-(pentylamino)pyrimidin-5-yl)propyl)-2-(4-(3-(dimethylamino)propyl)piperazin-1-yl)acetamido)methyl)phenyl)acetate]	3980
CCCCCNc1nc(N)nc(C)c1CCCN(Cc1cccc(CC(=O)OC)c1)C(=O)CN1CCC[C@H]1C(=O)OC [Example 5, (S)-Methyl 1-(2-((3-(2-amino-4-methyl-6-(pentylamino)pyrimidin-5-yl)propyl)(3-(2-methoxy-2-oxoethyl)benzyl)amino)-2-oxoethyl)pyrrolidine-2-carboxylate]	631
CCCCCNc1nc(N)nc(C)c1CCCN(Cc1ccc(CC(=O)OC)cc1)C(=O)CN1CCOCC1 [Example 27, Methyl 2-(4-((N-(3-(2-amino-4-methyl-6-(pentylamino)pyrimidin-5-yl)propyl)-2-morpholinoacetamido)methyl)phenyl)acetate]	2000
CCCCCNc1nc(N)nc(C)c1CCCNCc1ccc(CC(=O)OC)cc1 [Example 2, Methyl 2-(4-((3-(2-amino-4-methyl-6-(pentylamino)pyrimidin-5-yl)propylamino)methyl)phenyl)acetate]	1000
CCCCCNc1nc(N)nc(C)c1CCCN(Cc1ccc(CC(=O)OC)cc1)C(=O)C1CCN(C)CC1 [Example 51, Methyl 2-(4-((N-(3-(2-amino-4-methyl-6-(pentylamino)pyrimidin-5-yl)propyl)-1-methylpiperidine-4-carboxamido)methyl)phenyl)acetate]	794
CCCCCNc1nc(N)nc(C)c1CCCN(Cc1ccc(CC(=O)OC)cc1)C(=O)CN1CCC(c2ccccc2)CC1 [Example 28, Methyl 2-(4-((N-(3-(2-amino-4-methyl-6-(pentylamino)pyrimidin-5-yl)propyl)-2-(4-phenylpiperidin-1-yl)acetamido)methyl)phenyl)acetate]	1260
CCCCCNc1nc(N)nc(C)c1CCCNCc1cccc(CC(=O)OC)c1 [Example 1, Methyl 2-(3-((3-(2-Amino-4-methyl-6-(pentylamino)pyrimidin-5-yl)propylamino)methyl)phenyl)acetate]	501
CCC[C@@H](CCO)Nc1nc(N)nc(C)c1Cc1cc(CC(=O)OC)ccc1F [Example 42, (S)-Methyl 2-(3-((2-amino-4-(1-hydroxyhexan-3-ylamino)-6-methylpyrimidin-5-yl)methyl)-4-fluorophenyl)acetate]	631
CCCCCNc1nc(N)nc(C)c1CCCN(Cc1cccc(CC(=O)OC)c1)C(=O)CCC(=O)OC [Example 11, Methyl 4-((3-(2-amino-4-methyl-6-(pentylamino)pyrimidin-5-yl)propyl)(3-(2-methoxy-2-oxoethyl)benzyl)amino)-4-oxobutanoate]	1000
CCC[C@@H](CO)Nc1nc(N)nc(C)c1Cc1ccc(CC(=O)OC)cc1OC [Example 30, (S)-Methyl 2-(4-((2-amino-4-(1-hydroxypentan-2-ylamino)-6-methylpyrimidin-5-yl)methyl)-3-methoxyphenyl)acetate]	31.6
CCC[C@@H](CCO)Nc1nc(N)nc(C)c1Cc1ccc(CC(=O)OC)cc1 [Example 49, (S)-Methyl 2-(4-((2-amino-4-(1-hydroxyhexan-3-ylamino)-6-methylpyrimidin-5-yl)methyl)phenyl)acetate]	200
CCC[C@@H](CCO)Nc1nc(N)nc(C)c1Cc1ccc(CC(=O)OC)cc1F [Example 45, (S)-Methyl 2-(4-((2-amino-4-(1-hydroxyhexan-3-ylamino)-6-methylpyrimidin-5-yl)methyl)-3-fluorophenyl)acetate]	50.1
CCCCCNc1nc(N)nc(C)c1CCCNC(=O)Cc1cccc(CC(=O)OC)c1 [Example 24, Methyl 2-(3-(2-(3-(2-amino-4-methyl-6-(pentylamino)pyrimidin-5-yl)propylamino)-2-oxoethyl)phenyl)acetate]	1000
CCCCCNc1nc(N)nc(C)c1CCCNCc1cccc(OCC(=O)OC)c1 [Example 25, Methyl 2-(3-((3-(2-amino-4-methyl-6-(pentylamino)pyrimidin-5-yl)propylamino)methyl)phenoxy)acetate]	794
CCCC[C@@H](CO)Nc1nc(N)nc(C)c1Cc1ccc(CC(=O)OC)cc1OC [Example 32, (S)-Methyl 2-(4-((2-amino-4-(1-hydroxyhexan-2-ylamino)-6-methylpyrimidin-5-yl)methyl)-3-methoxyphenyl)acetate]	50.1

Now from value to compound:

EC50 [nM]	Structure (SMILES)
126	CCCCCNc1nc(N)nc(C)c1Cc1ccc(CC(=O)OCCCCN(C)C)cc1 [Example 57, 4-(Dimethylamino)butyl 2-(4-((2-amino-4-methyl-6-(pentylamino)pyrimidin-5-yl)methyl)phenyl)acetate]
126	CCCCCNc1nc(N)nc(C)c1Cc1ccc(CC(=O)OCC(C)(C)CN(C)C)cc1 [Example 55, 3-(Dimethylamino)-2,2-dimethylpropyl 2-(4-((2-amino-4-methyl-6-(pentylamino)pyrimidin-5-yl)methyl)phenyl)acetate]
6.31	CCC[C@@H](CCO)Nc1nc(N)nc(C)c1Cc1ccc(CC(=O)OC)cc1O [Example 75, (S)-Methyl 2-(4-((2-amino-4-(1-hydroxyhexan-3-ylamino)-6-methylpyrimidin-5-yl)methyl)-3-hydroxyphenyl)acetate]
20	CCCCNc1nc(N)nc(C)c1Cc1ccc(CC(=O)OCCCS(C)(=O)=O)cc1OC [Example 92, 3-(Methylsulfonyl)propyl 2-(4-((2-amino-4-(butylamino)-6-methylpyrimidin-5-yl)methyl)-3-methoxyphenyl)acetate]
20	CCCCNc1nc(N)nc(C)c1Cc1ccc(CC(=O)OCCCCO)cc1OC [Example 91, 4-Hydroxybutyl 2-(4-((2-amino-4-(butylamino)-6-methylpyrimidin-5-yl)methyl)-3-methoxyphenyl)acetate]
20	CCCCNc1nc(N)nc(C)c1Cc1ccc(CC(=O)OCCCO)cc1OC [Example 93, 3-Hydroxypropyl 2-(4-((2-amino-4-(butylamino)-6-methylpyrimidin-5-yl)methyl)-3-methoxyphenyl)acetate]
79.4	CCCCCNc1nc(N)nc(C)c1Cc1cc(CC(=O)OC)ccc1OC [Example 54, Methyl 2-(3-((2-amino-4-methyl-6-(pentylamino)pyrimidin-5-yl)methyl)-4-methoxyphenyl)acetate]
126	CCCCNc1nc(N)nc(C)c1Cc1ccc(CC(=O)OCC2CCN(C)CC2)cc1 [Example 69, (1-Methylpiperidin-4-yl)methyl 2-(4-((2-amino-4-(butylamino)-6-methylpyrimidin-5-yl)methyl)phenyl)acetate]
50.1	CCCCNc1nc(N)nc(C)c1Sc1ccc(CC(=O)OCCCCN2CCCC2)cc1 [Example 96, 4-(Pyrrolidin-1-yl)butyl 2-(4-(2-amino-4-(butylamino)-6-methylpyrimidin-5-ylthio)phenyl)acetate]
631	CCCCCNc1nc(N)nc(C)c1Cc1ccc(CC(=O)OCCCCN2CCC(N(C)C)CC2)cc1 [Example 68, 4-(4-(Dimethylamino)piperidin-1-yl)butyl 2-(4-((2-amino-4-methyl-6-(pentylamino)pyrimidin-5-yl)methyl)phenyl)acetate]
126	CCCCNc1nc(N)nc(C)c1Cc1ccc(CC(=O)OCCCCN2CCCC2)cc1O [Example 79, 4-(Pyrrolidin-1-yl)butyl 2-(4-((2-amino-4-(butylamino)-6-methylpyrimidin-5-yl)methyl)-3-hydroxyphenyl)acetate]
251	CCCCCNc1nc(N)nc(C)c1Cc1ccc(CC(=O)OCCCN2CCN(C)CC2)cc1 [Example 56, 3-(4-Methylpiperazin-1-yl)propyl 2-(4-((2-amino-4-methyl-6-(pentylamino)pyrimidin-5-yl)methyl)phenyl)acetate]
158	CCCCCNc1nc(N)nc(C)c1Cc1ccc(CC(=O)OCCC2CCN(C)CC2)cc1 [Example 66, 2-(1-Methylpiperidin-4-yl)ethyl 2-(4-((2-amino-4-methyl-6-(pentylamino)pyrimidin-5-yl)methyl)phenyl)acetate]
